Measurements published in patent publication US20150011501A1, “PARTIALLY DEPOLYMERIZED GLYCOSAMINOGLYCAN SILVER AND GOLD SALTS” (priority 2012, published 2015).

Assays:
[1] = Stability test (visual inspection of colour in the dark and under ambient light); assay type: physicochemical; conditions: precipitated product
Experimental: After this time, a visual inspection of the products was carried out and the products were protected in the dark again. After 12 hours, another visual inspection of the products was carried out. The products were then exposed to ambient light. After 5 hours, a visual inspection of the products was carried out.

[2] = tested on: E. Coli; experiment: Test of antimicrobial activity (halo diameter on plate); assay type: cell-based; set-up: unit not given here; conditions: chondroitin sulfate products 10% w/v, hyaluronic acid products 1.4% w/v in water
Description: (§1) The objective of the test was to verify the antimicrobial activity with the microorganisms E. Coli and S. Aureus. For this purpose, solutions in water of the following products were separately prepared: • Commercially available sodium chondroitin sulfate of marine origin having a molecular weight between 25,000 and 40,000 Daltons. Product described in European Pharmacopeia (01/2009:2064) (comparative example 10); • High molecular weight silver chondroitin sulfate (comparative example 8); • Partially depolymerized silver chondroitin sulfate (example 1); • High molecular weight silver hyaluronate (comparative example 9); • Partially depolymerized silver hyaluronate (example 2); • AgNO3 (comparative example 11); • Partially depolymerized gold chondroitin sulfate (example 3); • Partially depolymerized gold hyaluronate (example 4); and • Mixture of 1 g of commercially available sodium chondroitin sulfate of marine origin having a molecular weight between 25,000 and 40,000 Daltons and 0.1 g of AgNO3 (comparative example 12).
(§2) The products derived from chondroitin sulfate were dissolved at 10% (weight/volume). The products derived from hyaluronic acid were dissolved at 1.4% (weight/volume). For the rest of products water was added until complete dissolution.
(§3) Each of the products was applied, as well as a control (water), to a plate with S. Aureus and E. Coli. The products were incubated under standard conditions for S. Aureus and E. Coli. The results were expressed in areolar or halo diameter and were the following: for the comparative example 10 it was 0 in E. Coli and 0 in S. Aureus; for the comparative example 8 it was 7 in E. Coli and 8 in S. Aureus; for the example 1 it was 7 in E. Coli and 6 in S. Aureus; for the comparative example 9 it was 8 in E. Coli and 8 in S. Aureus; for the example 2 it was 7 in E. Coli and 6 in S. Aureus; for the comparative example 11 it was 8 in E. Coli and 6 in S. Aureus; for the example 3 it was 9 in E. Coli and 8 in S. Aureus; for the control it was 0 in E. Coli and 0 in S. Aureus; for the example 4 it was 4 in E. Coli and 6 in S. Aureus; and for the comparative example 12 it was 7 in E. Coli and 5 in S. Aureus.

[3] = tested on: S. Aureus; experiment: as above; assay type: cell-based; set-up: unit not given here; conditions: chondroitin sulfate products 10% w/v, hyaluronic acid products 1.4% w/v in water
Description: as §1, §2, §3

[4] = Viscosity test (dissolution time, appearance, displacement time); assay type: physicochemical; conditions: 0.01 g in 0.5 mL water, tube inverted (180° rotation)
Description: The objective of the test was to verify that the viscosity of the partially depolymerized products obtained is lower than the viscosity of the starting products (non-depolymerized). The products assessed were the following: • High molecular weight silver chondroitin sulfate (comparative example 8); • Partially depolymerized silver chondroitin sulfate (example 1); • High molecular weight silver hyaluronate (comparative example 9) and • Partially depolymerized silver hyaluronate (example 2).
The following parameters were assessed: dissolution time, appearance (visual method) and displacement time.
0.01 g of each product was dissolved separately in 0.5 mL of distilled water in test tubes of 11.5 cm of length and 1 cm of diameter. Once the products were completely dissolved, the position of the tubes was inverted to check the displacement time.

[5] = Preliminary test of toxicology (topical): side effects by visual inspection; assay type: in vivo
Experimental: (§4) The aim of this test was to assess the toxicity (topical) and effectiveness in burns. The side effects that the different products could cause including irritation, inflammation and/or darkening were assessed by visual inspection and photographs. The products assessed were the following: • Commercially available sodium chondroitin sulfate of marine origin having a molecular weight between 25,000 and 40,000 Daltons. Product described in European Pharmacopeia (01/2009:2064) (comparative example 10); • Partially depolymerized silver chondroitin sulfate (example 1); • Partially depolymerized silver chondroitin sulfate dissolved/mixed in a moisturizing cream (example 1c); • Partially depolymerized silver hyaluronate (example 2); • AgNO3 (comparative example 11); and • Partially depolymerized gold chondroitin sulfate (example 3).
(§5) The products derived from chondroitin sulfate were dissolved in water at 10% (weight/volume). The products derived from hyaluronic acid were dissolved at 1.4% (weight/volume). For the silver nitrate water was added until complete dissolution. The product of example 1c was mixed with a moisturizing cream.
All the products were applied in the “upper area of the arm” (upper biceps) and in the abdomen (area of the ribs). The products of examples 1, 2 and 3 were also applied in the “lower area of the arm”. The visual inspections were carried out with the following frequency after the application: 10 minutes, 30 minutes, 60 minutes, 8 h, 3 days, 4 days, 7 days and 9 days.
The treated areas were exposed to different types of light (solar, incandescent bulb, fluorescent) for 10 minutes. Darkening was not observed in any case. The abdomen was protected from the light after 10 minutes. The “upper area of the arm” was left under light exposure up to 8 hours. The “lower area of the arm” had continuous exposure to ambient light.

[6] = Preliminary test of effectiveness in burns; assay type: in vivo; conditions: for efficacy in skin surfaces with burns or wounds: overall conclusion
Experimental: as §4, §5
In the application of the product of the comparative example 11 irritation was observed both in the “upper area of the arm” and in the abdomen at 10 minutes and at 30 minutes. […] At this moment, the product of example 1 was applied to the burn of the abdomen. 2 daily applications of the product of example 1 were done to the burn during the next 3 days. […] At this moment, the product of example 2 was applied to the burn of the “upper area of the arm”. 3 daily applications of the product of example 2 were done to the burn.

[7] = Acute oral toxicology test (OECD Guideline No. 420, fixed dose); assay type: in vivo; set-up: median lethal oral dose (LD50): unit not given here
Experimental: An acute oral toxicology test of partially depolymerized silver chondroitin sulfate (example 1) was carried out to assess the oral toxicity and identify the corresponding classification (GHS, Globally Harmonised Classification System for Chemical Substances and Mixtures). The study was conducted according to the OECD Guideline No. 420 (fixed dose).

[8] = Absorption test on cellulose paper; assay type: physicochemical
Experimental: A comparative test of the absorption of the depolymerized compounds of the invention and the non-depolymerized compounds was carried out. To do this, partially depolymerized silver chondroitin sulfate (example 1) and high molecular weight silver chondroitin sulfate (comparative example 8) were dissolved separately with water at the same concentration (10% by weight/volume). Once the products were completely dissolved it was noted that the viscosity of the product of example 1 was lower than that of the product of the comparative example 8. 10 mL of each product were applied on cellulose paper.

[9] = after 5 hours of exposure to ambient light

Molecule	color (visual inspection) ([1]; after 1 hour in the dark)	color (visual inspection) [1, 9]	color (visual inspection) ([1]; after 12 hours in the dark)	areolar or halo diameter [2]	areolar or halo diameter [3]	displacement time [4] [s]	also measured
High Molecular Weight Silver Chondroitin Sulfate [comparative example 8]	white	dark red	white	7	8	30	
Partially Depolymerized Silver Chondroitin Sulfate (Without Bleaching Step) [comparative example 7]	white	dark red	white				
Partially Depolymerized Ssilver Chondroitin Sulfate (Bleaching Agent: Sodium Metabisulfite) [comparative example 5]	reddish	black	reddish to black				
Partially Depolymerized Silver Hyaluronate [example 2]				7	6	1	problems of darkening, irritation, itching or inflammation ([5]; in vivo): did not have problems of darkening, irritation, itching or inflammation; side effects by visual inspection ([5]; in vivo): no relevant behavior; efficacy in skin surfaces with burns or wounds [6]: produce an improvement; burn healing (visual) ([6]; silver nitrate burn of the upper area of the arm, 3 daily applications from seventh day, observed after the ninth day): almost completely disappeared
Partially Depolymerized Gold Hyaluronate [example 4]				4	6		
Partially Depolymerized Silver Chondroitin Sulfate [example 1]	white	white	white	7	6	1	side effects by visual inspection ([5]; topical, all areas applied, all inspections from 10 minutes to 9 days): no relevant behavior; problems of darkening, irritation, itching or inflammation ([5]; topical, overall conclusion, unlike silver nitrate): did not have problems of darkening, irritation, itching or inflammation; efficacy in skin surfaces with burns or wounds [6]: produce an improvement; burn healing (visual) ([6]; silver nitrate burn of the abdomen, 2 daily applications from third day, observed after the fourth day): nearly full disappearance of the burn; GHS classification ([7]; Globally Harmonised Classification System): 5; median lethal oral dose (LD50) ([7]; OECD Guideline No. 420 fixed dose): > 2000; viscosity relative to comparative example 8 ([8]; 10% by weight/volume in water): lower; absorption on cellulose paper relative to comparative example 8 ([8]; 10 mL of 10% w/v solution applied on cellulose paper): absorbed more rapidly
O=[N+]([O-])[O-].[Ag+] [comparative example 11, AgNO3]				8	6		side effects by visual inspection ([5]; topical, after 8 hours): irritation, itching, burning and a halo or aureole; side effects by visual inspection ([5]; topical, after the third day): increase of the diameter of the aureole of the burn; side effects by visual inspection ([5]; topical, parts where product was applied, after 60 minutes): irritation, itching and burning; side effects by visual inspection ([5]; topical, upper area of the arm and abdomen, at 10 minutes and at 30 minutes): irritation; side effects by visual inspection ([5]; topical, upper area of the arm, after the fourth day): increase of the diameter of the aureole of the burn; side effects by visual inspection ([5]; topical, upper area of the arm, after the seventh day): diameter of the aureole of the burn increased
Partially Depolymerized Gold Chondroitin Sulfate [example 3]				9	8		problems of darkening, irritation, itching or inflammation ([5]; in vivo): did not have problems of darkening, irritation, itching or inflammation; side effects by visual inspection ([5]; in vivo): no relevant behavior
High Molecular Weight Silver Hyaluronate [comparative example 9]				8	8	300	
sodium chondroitin sulfate [comparative example 10]				0	0		
